Data on 21 molecules can be found in patent US20100168102A9, “Amide Derivatives as Kinase Inhibitors” (Devgen NV, priority 2005, published 2010).

One experiment deals with PKCε. In words: Reporter assay (PathDetect trans reporter, Elk/SEAP) in reporter cell-lines over-expressing PKCε. The experiment is classed as cell-based. The text has this: Whereas the reporter assay is focused on PKCε specific inhibition in a recombinant system, the monocytes assay is a biomarker assay that can be performed in isolated monocytes, full blood and in vivo to follow the pharmacological reduction of cytokine production:
The reporter assay exploits the effect of over-expressed PKCε on kinase activation and phosphorylation of a transcription factor to evaluate the potency and selectivity of PKCε inhibitors in a cellular context.
It has been shown by jae-Won Soh et al (MCB, February 1999 p 1313-1324) that over-expression of PKC epsilon results in the activation of MAPK-pathway (c-raf/MEK/ERK) leading to the activation of Elk transcription factor. This event can be monitored using the PathDetect trans reporter assay system (Stratagene): pFA2-ELK codes for a fusion protein between the Gal4 DNA binding domain and the transactivation domain of Elk which drives the expression of a secreted alkaline phosphatase (SEAP) reporter gene.
Compounds are incubated with reporter cell-lines either over-expressing PKCε, leading to continued activation of the kinase, or mock transfected cells. Inhibition of the PKCε induced signal in the absence of an effect on the basal level (mock transfected cells) is indicative for selective PKCε inhibition.
In general terms: A reporter such as luciferase makes a cellular process visible.

The next experiment addresses T1, PKC epsilon (Homo sapiens, UniProt Q02156).
T1 construct: purchased Invitrogen P2282
T1 sequence (Q02156 1-737): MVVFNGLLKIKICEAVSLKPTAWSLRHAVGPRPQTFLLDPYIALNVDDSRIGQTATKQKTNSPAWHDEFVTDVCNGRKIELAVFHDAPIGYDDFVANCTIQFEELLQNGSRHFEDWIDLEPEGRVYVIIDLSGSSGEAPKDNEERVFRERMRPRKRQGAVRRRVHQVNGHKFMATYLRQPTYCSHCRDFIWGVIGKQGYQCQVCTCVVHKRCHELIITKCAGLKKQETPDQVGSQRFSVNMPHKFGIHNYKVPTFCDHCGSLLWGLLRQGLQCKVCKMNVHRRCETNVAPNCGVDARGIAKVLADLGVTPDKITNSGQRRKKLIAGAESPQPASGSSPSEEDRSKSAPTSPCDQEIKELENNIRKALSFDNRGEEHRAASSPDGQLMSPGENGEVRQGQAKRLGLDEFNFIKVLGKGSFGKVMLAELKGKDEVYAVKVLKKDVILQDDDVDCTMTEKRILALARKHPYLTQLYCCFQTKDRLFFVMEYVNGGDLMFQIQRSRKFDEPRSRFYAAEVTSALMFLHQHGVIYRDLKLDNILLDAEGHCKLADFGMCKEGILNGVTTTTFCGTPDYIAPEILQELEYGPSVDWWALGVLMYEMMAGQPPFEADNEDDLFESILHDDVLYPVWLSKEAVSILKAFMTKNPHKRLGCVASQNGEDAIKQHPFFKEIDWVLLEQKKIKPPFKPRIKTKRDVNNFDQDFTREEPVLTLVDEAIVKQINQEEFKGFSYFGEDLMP
In words: Biochemical assay for PKC epsilon (fluorescence polarization, Protein Kinase C Assay Kit, Red). As to conditions: read-out: IC50 μM PKCε. The gist of the method: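 PKC epsilon at 10 ng/ml final was preincubated 30 min at room temperature with compound in HEPES pH 7.4 with DTT and Triton X-100. ATP/protein substrate was then added in buffer with MgCl2 and CaCl2 for 80 min. The reaction was stopped with EDTA, phosphorylation was detected by fluorescence polarization with rhodamine tracer and anti-phosphoserine antibody, and IC50 values came from curve fits.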
A general note: Polarisation of emitted light reports the rotation of a fluorescent probe.

The next experiment deals with T2, human ROCKα/ROCKII mix (Homo sapiens, UniProt O75116).
T2 construct: purchased Upstate Biotechnology 14-451
In words: Biochemical assay for ROCK (fluorescence polarization, ROCK IMAP Kit).

The mark [1] stands for this setting: Table 2, compounds of Formula XIII.
Setting [2] is: compounds of Formula XIV, Table 3.

Where a name gives a salt, the structure may show the parent alone. Read-outs that look alike come from different tables or passages of the source.

T2 sequence (O75116 11-552 limits assumed): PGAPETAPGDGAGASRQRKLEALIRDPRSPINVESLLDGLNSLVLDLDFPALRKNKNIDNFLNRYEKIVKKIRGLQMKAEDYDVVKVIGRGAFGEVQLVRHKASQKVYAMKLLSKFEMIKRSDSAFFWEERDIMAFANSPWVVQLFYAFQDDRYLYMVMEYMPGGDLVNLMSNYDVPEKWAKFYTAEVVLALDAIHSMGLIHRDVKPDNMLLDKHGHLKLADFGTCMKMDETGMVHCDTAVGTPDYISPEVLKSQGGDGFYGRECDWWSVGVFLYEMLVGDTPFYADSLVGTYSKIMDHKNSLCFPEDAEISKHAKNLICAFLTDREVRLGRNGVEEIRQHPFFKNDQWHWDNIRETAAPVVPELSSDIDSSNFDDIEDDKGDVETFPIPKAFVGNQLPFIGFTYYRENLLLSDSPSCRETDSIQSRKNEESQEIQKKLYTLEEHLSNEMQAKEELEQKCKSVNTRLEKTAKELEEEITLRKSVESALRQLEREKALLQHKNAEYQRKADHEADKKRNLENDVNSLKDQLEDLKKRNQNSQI

With `NC(CNC(=O)C1(c2ccc(F)cc2)CC1)c1ccc(C(=O)Nc2ccncc2)cc1` (centres unmarked) [Compound 340, 4-(1-Amino-2-{[1-(4-fluoro-phenyl)-cyclopropanecarbonyl]-amino}-ethyl)-N-pyridin-4-yl-benzamide], the IC50 (in general, the point on the concentration scale where inhibition reaches its midpoint) was under 5000 nM with PKCε and under 0.05 µM at PKC epsilon (setting [1]).
Turning to `N[C@H](CC(=O)N[C@@H]1CCCc2ccccc21)c1ccc(C(=O)Nc2ccncc2)cc1` [Compound 373, 4-{(R)-1-Amino-2-[(R)-(1,2,3,4-tetrahydro-naphthalen-1-yl)carbamoyl]-ethyl}-N-pyridin-4-yl-benzamide dihydrochloric acid salt], the figures for the IC50 at human ROCKα/ROCKII mix, in the experiment with PKCε and on PKC epsilon were under 0.05 µM, under 5000 nM and under 0.05 µM, respectively.
With `NC(CNC(=O)C1CCCCc2ccc(F)cc21)c1ccc(C(=O)Nc2ccncc2)cc1` (centres unmarked) [Compound 356, 3-Fluoro-6,7,8,9-tetrahydro-5H-benzocycloheptene-5-carboxylic acid {2-amino-2-[4-(pyridin-4-ylcarbamoyl)-phenyl]-ethyl}-amide], the results for the IC50 at human ROCKα/ROCKII mix (setting [1]), in the experiment with PKCε and on PKC epsilon (setting [1]) were 0.05 to 0.5 µM, under 5000 nM and under 0.05 µM, respectively.
For the molecule `CS(=O)(=O)c1cccc(C(=O)NCC(N)c2ccc(C(=O)Nc3ccncc3)cc2)c1` (centres unmarked) [Compound 96, 4-[1-amino-2-(3-methanesulfonyl-benzoylamino)-ethyl]-N-pyridin-4-yl-benzamide], the IC50 on human ROCKα/ROCKII mix (setting [1]) and at PKC epsilon (setting [1]) was 0.5 to 5 µM in each case.
Consider `NC(CNC(=O)CC1CC1)c1ccc(C(=O)Nc2ccncc2)cc1` (centres unmarked) [Compound 46, 4-[1-Amino-2-(2-cycopropyl-acetylamino)-ethyl]-N-pyridin-4-yl-benzamide], for which the IC50 at human ROCKα/ROCKII mix (setting [1]) and at PKC epsilon (setting [1]) was 0.5 to 5 µM throughout.
For `CCOc1ccc(CCNC(=O)CC(N)c2ccc(C(=O)Nc3ccncc3)cc2)cc1` (centres unmarked) [Compound 290], the IC50 against human ROCKα/ROCKII mix (setting [2]) fell in the range of 0.05 to 0.5 µM; at PKC epsilon (setting [2]), 0.5 to 5 µM.
Take `NC(CC(=O)NC1c2ccccc2-c2ccccc21)c1ccc(C(=O)Nc2ccncc2)cc1` (centres unmarked) [Compound 227, 4-[1-Amino-2-(9H-fluoren-9-ylcarbamoyl)-ethyl]-N-pyridin-4-yl-benzamide]: the IC50 lay within 0.05 to 0.5 µM on human ROCKα/ROCKII mix (setting [2]) and 0.5 to 5 µM on PKC epsilon (setting [2]).
Take `NC(c1ccc(C(=O)Nc2ccncc2)cc1)C1CCCN1C(=O)C1CCOc2ccc(Cl)cc21` (centres unmarked) [Compound 616, 4-{Amino[1-(6-chloro-chroman-4-carbonyl)-pyrrolidin-2-yl]-methyl}-N-pyridin-4-benzamide]: the IC50 at human ROCKα/ROCKII mix and on PKC epsilon was 0.5 to 5 µM throughout.
Turning to `CN(C)CCCC(=O)NCC(N)c1ccc(C(=O)Nc2ccncc2)cc1` (centres unmarked) [Compound 53, 4-[1-Amino-2-(4-dimethylamino-butyrylamino)-ethyl]-N-pyridin-4-yl-benzamide], the IC50 against human ROCKα/ROCKII mix (setting [1]) was in the range of 0.5 to 5 µM; at PKC epsilon (setting [1]), 5 to 50 µM.
Turning to `NC(CNC(=O)Nc1ccc2ccccc2c1)c1ccc(C(=O)Nc2ccncc2)cc1` (centres unmarked) [Compound 23, 4-[1-amino-2-(3-naphtalen-2-yl-ureido)-ethyl]-N-pyridin-4-yl-benzamide], the IC50 against human ROCKα/ROCKII mix lay within 0.05 to 0.5 µM; at PKC epsilon, 0.5 to 5 µM.
As to `NC(CC(=O)NCc1cccc(Cl)c1)c1ccc(C(=O)Nc2ccncc2)cc1` (centres unmarked) [Compound 248, 4-[1-Amino-2-(3-chloro-benzylcarbamoyl)-ethyl]-N-pyridin-4-yl-benzamide], the IC50 against human ROCKα/ROCKII mix (setting [2]) and at PKC epsilon (setting [2]) was 0.05 to 0.5 µM each time.
For the molecule `NC(c1ccc(C(=O)Nc2ccncc2)cc1)C1CCCN1C(=O)C1CCSc2ccc(F)cc21` (centres unmarked) [Compound 619, 4-{Amino[1-(6-fluoro-thiochroman-4-carbonyl)-pyrrolidin-2-yl]-methyl}-N-pyridin-4-yl-benzamide], the IC50 at human ROCKα/ROCKII mix and on PKC epsilon was 0.5 to 5 µM each time.
On to `NC(c1ccc(C(=O)Nc2ccncc2)cc1)C1CCCN1C(=O)C1(c2ccc(Cl)cc2Cl)CC1` (centres unmarked) [Compound 596, 4-(Amino-{1-[1-(2,4-dichloro-phenyl)-cyclopropanecarbonyl]-pyrrolidin-2-yl}-methyl)-N-pyridin-4-yl-benzamide], for which the figures for the IC50 against human ROCKα/ROCKII mix and at PKC epsilon were 0.5 to 5 µM and 5 to 50 µM, respectively.
For `Cc1ccc(C)c(CC(=O)NCC(N)c2ccc(C(=O)Nc3ccncc3)cc2)c1` (centres unmarked) [Compound 144, 4-{1-Amino-2-[2-(2,5-dimethyl-phenyl)-aceylamino]-ethyl}-N-pyridin-4-yl-benzamide], the IC50 on human ROCKα/ROCKII mix (setting [1]) and on PKC epsilon (setting [1]) was 0.5 to 5 µM throughout.
Consider `NC(c1ccc(C(=O)Nc2ccncc2)cc1)C1CCCN1C(=O)Cc1c(F)cccc1Cl` (centres unmarked) [Compound 597, 4-(Amino-{1-[2-(2-chloro-6-fluoro-phenyl)-acetyl]-pyrrolidin-2-yl}-methyl)-N-pyridin-4-yl-benzamide], for which the IC50 at human ROCKα/ROCKII mix was in the range of 0.5 to 5 µM; at PKC epsilon it was 5 to 50 µM.
As for `NC(CNC(=O)c1ccc2cc[nH]c2c1)c1ccc(C(=O)Nc2ccncc2)cc1` (centres unmarked) [Compound 131, 1H-Indole-6-carboxylic acid {2-amino-2-[4-(pyridin-4-ylcarbamoyl)-phenyl]-ethyl}-amide], the results for the IC50 against human ROCKα/ROCKII mix (setting [1]) and on PKC epsilon (setting [1]) were 0.5 to 5 µM and 5 to 50 µM, respectively.
The corresponding values for `NC(CNC(=O)[C@@H]1CCC(=O)N1)c1ccc(C(=O)Nc2ccncc2)cc1` (stereo partly drawn) [Compound 67, 5-Oxo-pyrrolidine-2-(S)-carboxylic acid {2-amino-2-[4-(pyridin-4-ylcarbamoyl)-phenyl]-ethyl}-amide] are 0.5 to 5 µM and 5 to 50 µM.
For `Cc1ccc2[nH]cc(CCNC(=O)CC(N)c3ccc(C(=O)Nc4ccncc4)cc3)c2c1` (centres unmarked) [Compound 314, 4-{1-Amino-2-[2-(5-methyl-1H-indol-3-yl)-ethylcarbamoyl]-ethyl}-N-pyridin-4-yl-benzamide], the IC50 on human ROCKα/ROCKII mix (setting [2]) fell in the range of 0.05 to 0.5 µM; on PKC epsilon (setting [2]) it was 0.5 to 5 µM.
In the case of `NC(CNC(=O)c1ccc2c(c1)OCO2)c1ccc(C(=O)Nc2ccncc2)cc1` (centres unmarked) [Compound 80, Benzo[1,3]dioxole-5-carboxylic acid {2-amino-2-[4-(pyridin-4-ylcarbamoyl)-phenyl]-ethyl}amide], the figures for the IC50 at human ROCKα/ROCKII mix (setting [1]) and on PKC epsilon (setting [1]) were 0.05 to 0.5 µM and 5 to 50 µM, respectively.
With `CN(CCO)C(=O)CC(N)c1ccc(C(=O)Nc2ccncc2)cc1` (centres unmarked) [Compound 179, 4-{1-amino-2-[(2-hydroxy-ethyl)-methyl-carbamoyl]-ethyl}-N-pyridin-4-yl-benzamide], the IC50 was in the range of 0.05 to 0.5 µM on human ROCKα/ROCKII mix (setting [2]) and 0.5 to 5 µM on PKC epsilon (setting [2]).
Turning to `NC(CNC(=O)Cc1cccs1)c1ccc(C(=O)Nc2ccncc2)cc1` (centres unmarked) [Compound 153, 4-[1-amino-2-(2-thiophen-2-yl-acetylamino)-ethyl]-N-pyridin-4-yl-benzamide], the IC50 on human ROCKα/ROCKII mix (setting [1]) lay within 0.05 to 0.5 µM; at PKC epsilon (setting [1]) it was 0.5 to 5 µM.
